# Data: ChEMBL document CHEMBL1148100, “Structure-activity relationships of norditerpenoid alkaloids occurring in toxic larkspur (Delphinium) species” (J Nat Prod, 1995)
# Assay: Toxicity in iv dosed Swiss-Webster mouse
# Assay type: organism-based
# Settings: in vivo
row,SMILES,LD50
1,CCN1C[C@]2(COC(=O)c3ccccc3N3C(=O)CC(C)C3=O)CC[C@H](OC)[C@]34C1[C@](O)([C@@H](OC)[C@H]23)[C@@]1(O)C[C@H](OC)[C@H]2C[C@@H]4[C@@H]1C2=O (stereo partly drawn) [BARBININE],57 mg/kg
2,CO[C@H]1[C@@H]2C[C@@H]3[C@H]1[C@](O)(C[C@@H]2OC)[C@]1(O)C2N=C[C@]4(COC(=O)c5ccccc5N5C(=O)CC(C)C5=O)CC[C@H](OC)[C@@]23[C@@H]4[C@@H]1OC (stereo partly drawn) [ANHWEIDELPHININE],> 177 mg/kg
3,CCN1C[C@]2(C)CC[C@H](OC)[C@@]34C1[C@]1(OCO[C@@]15C[C@H](OC)[C@H]1C[C@]3(O)[C@@H]5[C@H]1O)[C@@H](OC(C)=O)[C@H]24 [DICTYOCARPINE],283 mg/kg
4,CCN1C[C@]2(COC(=O)c3ccccc3N3C(=O)C[C@H](C)C3=O)CC[C@H](OC)[C@@]34[C@@H]5C[C@H]6[C@H](OC)[C@@H]5[C@](O)(C[C@@H]6OC)[C@](O)([C@@H](OC)[C@H]23)[C@@H]14 [METHYLLYCACONITINE],7.5 mg/kg
5,CO[C@H]1[C@@H]2C[C@@H]3[C@H]1[C@](O)(C[C@@H]2OC)[C@]1(O)C2NC[C@]4(COC(=O)c5ccccc5N5C(=O)CC(C)C5=O)CC[C@H](OC)[C@@]23[C@@H]4[C@@H]1OC (stereo partly drawn),100 mg/kg
6,CCN1C[C@]2(C)CC[C@H](OC)[C@@]34C1[C@]1(OCO[C@@]15C[C@H](OC)[C@H]1C[C@]3(O)[C@@H]5[C@H]1OC)[C@@H](OC(C)=O)[C@H]24 [DELTALINE],200 mg/kg
7,CCN1C[C@]2(CO)CC[C@H](OC)[C@@]34[C@@H]5C[C@H]6[C@H](OC)[C@@H]5[C@](O)(C[C@@H]6OC)[C@](O)([C@@H](OC)[C@H]23)[C@@H]14 [LYCOCTONINE],444 mg/kg
8,CCN1C[C@]2(COC(=O)c3ccccc3N3C(=O)C[C@H](C)C3=O)CC[C@H](OC)[C@]34C5C[C@@H]6[C@@H](OC)C[C@@](O)(C5[C@H]6OC(C)=O)[C@](O)(C13)[C@@H](OC)C24 (stereo partly drawn) [NUDICAULINE],2.7 mg/kg
9,CCN1C[C@]2(COC(=O)c3ccccc3N)CC[C@H](OC)[C@]34C1[C@](O)([C@@H](OC)[C@H]23)[C@@]1(O)C[C@H](OC)[C@H]2C[C@@H]4[C@@H]1[C@H]2OC [ANTHRANOYLLYCOCTONINE],20.8 mg/kg
10,CO[C@H]1[C@@H]2C[C@@H]3[C@H]1[C@](O)(C[C@@H]2OC)[C@]1(O)C2NC(=O)[C@]4(COC(=O)c5ccccc5N5C(=O)CC(C)C5=O)CC[C@H](OC)[C@@]23[C@@H]4[C@@H]1OC (stereo partly drawn) [ZALILINE],> 230 mg/kg
11,CCN1C[C@]2(COC(=O)c3ccccc3N3C(=O)C[C@H](C)C3=O)CC[C@H](OC)[C@@]34C1[C@@]1(OCO[C@@]15C[C@H](OC)[C@H]1C[C@@H]3[C@@H]5[C@H]1OC)[C@@H](OC)[C@H]24 [ELATINE],9.2 mg/kg
12,CO[C@H]1[C@@H]2C[C@]3(O)[C@H]1[C@@]1(C[C@@H]2OC)OCO[C@]12C1NC[C@]4(C)CC[C@H](OC)[C@@]13[C@@H]4[C@@H]2OC(C)=O,210 mg/kg
13,CCN1C[C@]2(COC(=O)c3ccccc3N3C(=O)CC(C)C3=O)CC[C@H](OC)[C@]34C1[C@](O)([C@@H](OC)[C@H]23)[C@@]1(O)C[C@H](OC)[C@H]2C[C@@H]4[C@@H]1[C@H]2O (stereo partly drawn),4 mg/kg
